“And” between values parts separate entries of the source, which are not always exact repeats. Identical values can stand only once.
Legend:
HepG2 cells [1] = experiment: MTT cytotoxicity assay, HepG2; format: cell-based; details: Homo sapiens, HepG2, 48 h, read-out: Cytotoxic IC50 HepG2
Protocol: (§3) Using RPMI-1640 medium L-Glutamine (Lonza Verviers SPRL, Belgium, cat#12-604F), we successfully cultured liver (HepG2), breast (MCF-7), and lung (A549) cells bought from the National Research Institute, Egypt. Each culture was supplemented with 10% foetal bovine serum (FBS, Sigma-Aldrich, MO, USA) and 1% penicillin-streptomycin (Lonza, Belgium). Using a 96-well plate, cells were seeded at a density of 5,000 cells per well in triplicate. The chemicals were added to the cells on day 2 at doses of (0.01, 0.1, 1, 10, and 100 M). To determine cell viability, MTT solution was used after 48 h (Promega, USA)[84]. Using GraphPad Prism 7, as was previously reported in, we computed the survival rate in comparison to the control and obtained the IC50 values[85].

MCF-7 cells = experiment: MTT cytotoxicity assay, MCF-7; format: cell-based; details: Homo sapiens, MCF7, 48 h, read-out: Cytotoxic IC50 MCF-7
Protocol: as §3

A549 cells = experiment: MTT cytotoxicity assay, A549; format: cell-based; details: Homo sapiens, A549, 48 h, read-out: Cytotoxic IC50 A549
Protocol: as §3

Casp-9 = experiment: RT-PCR gene expression, Casp-9; format: cell-based; details: HepG2 cells, IC50, 48 h; normalized to β-actin; untreated = 1
Protocol: (§1) The gene expression of P53, Bax, Caspasses-3,8,9 as proapoptotic genes and Bcl-2 as an anti-apoptotic gene were evaluated to investigate the apoptotic pathway. […] Afterwards, the standard operating procedure called for an RT-PCR reaction to be performed. The Ct values were then used to determine the relative expression of each gene in each sample, normalised to the β-actin as house-keeping gene[90–92].

Casp-3 = experiment: RT-PCR gene expression, Casp-3; format: cell-based; details: HepG2 cells, IC50, 48 h; normalized to β-actin; untreated = 1
Protocol: as §1

Bcl-2 = experiment: RT-PCR gene expression, Bcl-2; format: cell-based; details: HepG2 cells, IC50, 48 h; normalized to β-actin; untreated = 1
Protocol: as §1

Bax = experiment: RT-PCR gene expression, Bax; format: cell-based; details: HepG2 cells, IC50, 48 h; normalized to β-actin; untreated = 1
Protocol: as §1

HepG2 cells [2] = experiment: DNA content flow cytometry cell cycle analysis; format: cell-based; details: IC50 concentration, 48 h, control 39.15%
Casp-8 = experiment: RT-PCR gene expression, Casp-8; format: cell-based; details: HepG2 cells, IC50, 48 h; normalized to β-actin; untreated = 1
Protocol: as §1

Topoisomerase II = target: T1, Topoisomerase II (Homo sapiens, UniProt P11388); experiment: Topoisomerase II inhibition assay; format: biochemical; details: average of three independent replicates, five concentrations
T1 construct: purchased TopoGEN, Inc., Columbus
T1 sequence (P11388 whole entry): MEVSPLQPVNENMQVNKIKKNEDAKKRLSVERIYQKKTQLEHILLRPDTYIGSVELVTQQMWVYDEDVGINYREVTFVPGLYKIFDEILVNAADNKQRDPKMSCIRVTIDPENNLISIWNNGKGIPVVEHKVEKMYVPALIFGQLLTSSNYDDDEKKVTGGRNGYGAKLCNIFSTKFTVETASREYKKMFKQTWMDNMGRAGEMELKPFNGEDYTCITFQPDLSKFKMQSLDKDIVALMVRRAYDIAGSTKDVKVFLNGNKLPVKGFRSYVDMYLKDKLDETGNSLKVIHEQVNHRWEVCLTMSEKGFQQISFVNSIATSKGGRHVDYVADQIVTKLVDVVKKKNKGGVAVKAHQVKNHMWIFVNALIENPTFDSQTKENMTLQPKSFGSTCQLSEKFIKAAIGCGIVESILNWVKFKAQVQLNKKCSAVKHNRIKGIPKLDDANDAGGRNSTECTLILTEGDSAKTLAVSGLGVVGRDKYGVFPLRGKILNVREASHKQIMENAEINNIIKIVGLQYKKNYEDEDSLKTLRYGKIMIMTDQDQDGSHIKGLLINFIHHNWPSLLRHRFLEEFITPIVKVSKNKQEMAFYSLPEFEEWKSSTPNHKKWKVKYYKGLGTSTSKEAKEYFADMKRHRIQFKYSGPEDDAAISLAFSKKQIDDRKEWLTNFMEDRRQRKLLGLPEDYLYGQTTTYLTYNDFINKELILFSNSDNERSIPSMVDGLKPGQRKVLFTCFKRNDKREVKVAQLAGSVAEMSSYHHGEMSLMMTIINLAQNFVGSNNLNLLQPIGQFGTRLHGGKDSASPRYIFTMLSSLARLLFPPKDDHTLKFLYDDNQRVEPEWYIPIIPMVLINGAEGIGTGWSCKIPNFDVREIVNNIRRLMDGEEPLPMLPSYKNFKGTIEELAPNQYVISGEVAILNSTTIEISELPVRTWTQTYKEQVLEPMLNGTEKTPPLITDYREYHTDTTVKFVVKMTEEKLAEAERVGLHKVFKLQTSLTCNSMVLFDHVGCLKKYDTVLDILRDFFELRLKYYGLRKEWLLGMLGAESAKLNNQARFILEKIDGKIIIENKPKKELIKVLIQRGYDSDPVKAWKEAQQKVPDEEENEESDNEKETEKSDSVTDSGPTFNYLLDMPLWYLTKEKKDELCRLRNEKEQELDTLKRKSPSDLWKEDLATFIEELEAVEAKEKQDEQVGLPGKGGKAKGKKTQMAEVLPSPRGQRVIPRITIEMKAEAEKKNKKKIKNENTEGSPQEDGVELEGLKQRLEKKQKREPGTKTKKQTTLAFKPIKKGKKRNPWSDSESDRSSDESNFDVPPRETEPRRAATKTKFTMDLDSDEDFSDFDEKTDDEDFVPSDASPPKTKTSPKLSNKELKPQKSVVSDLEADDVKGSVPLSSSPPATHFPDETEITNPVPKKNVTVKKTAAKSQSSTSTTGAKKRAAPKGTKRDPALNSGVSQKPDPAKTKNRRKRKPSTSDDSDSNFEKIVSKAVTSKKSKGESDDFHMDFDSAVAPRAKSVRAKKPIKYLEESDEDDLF
Protocol: (§2) Topoisomerase II (TopoGEN, Inc., Columbus) and DNA intercalator (methyl green (20 mg) and Calfthymus DNA (10 mg) were tested for their capacity to block the enzyme’s activity. Following equation was used to determine compound inhibition percentages: 100−[A control/A treated−Control)], IC50 was determined using GraphPad prism7 using inhibition curves at five different concentrations of each compound[86].

HepG2 cells [3] = experiment: Annexin V/PI staining flow cytometry (apoptosis); format: cell-based; details: IC50 concentration, 48 h
Protocol: After incubation overnight, 6-well culture plates were populated with HepG2 cells (3–5 10^5 cells/well). […] Cells and medium supernatants were then collected and washed in ice-cold PBS. The next step was suspending the cells in 100 µL of annexin binding buffer solution "25 mM CaCl2, 1.4 M NaCl, and 0.1 M Hepes/NaOH, pH 7.4” and incubation with “Annexin V-FITC solution (1:100) and propidium iodide (PI)” at a concentration equals 10 µg/mL in the dark for 30 min. The Cytoflex FACS system was then used to acquire the stained cells. cytExpert was used for the statistical analysis.

Calfthymus DNA = experiment: DNA intercalation assay (DNA/methyl green); format: binding, calf; details: average of three independent replicates, five concentrations
Protocol: as §2

P53 = experiment: RT-PCR gene expression, P53; format: cell-based; details: HepG2 cells, IC50, 48 h; normalized to β-actin; untreated = 1
Protocol: as §1

[4] = MTT cytotoxicity assay, HepG2; format: cell-based; details: human, HepG2 liver cells, read-out: Cytotoxic IC50 HepG2
Protocol: as §3

[5] = MTT cytotoxicity assay, MCF-7; format: cell-based; details: human, MCF-7 breast cells, read-out: Cytotoxic IC50 MCF-7
Protocol: as §3

[6] = MTT cytotoxicity assay, A549; format: cell-based; details: human, A549 lung cells, read-out: Cytotoxic IC50 A549
Protocol: as §3

`O=C1NC(=S)S/C1=C\c1ccc(Cl)cc1Cl` [Compound 3b, 5-((Z)-2,4-dichlorobenzylidene)-2-thioxo-4-thiazolidinone] gave an IC50 (HepG2 cells [1]) of 7.8 µM, an IC50 (MCF-7 cells) of 17.9 µM and an IC50 (A549 cells) of 9.7 µM.
With `O=C1NC(=S)S/C1=C\c1ccc2c(c1)OCCO2` [Compound 3c, 5-((Z)-3,4-ethylenedioxybenzylidene)-2-thioxo-4-thiazolidinone] the IC50 (HepG2 cells [1]) was 11.7 µM, the melting point was 208 to 210 °C and the IC50 (MCF-7 cells) was 7.1 µM. The IC50 (A549 cells) was 13.7 µM.
`COc1ccc(/C=C2\SC(=S)NC2=O)cc1` [Compound 3d, 5-((Z)-4-methoxybenzylidene)-2-thioxo-4-thiazolidinone] gave an IC50 (HepG2 cells [1]) of 18.1 µM, an IC50 (MCF-7 cells) of 15.1 µM and an IC50 (A549 cells) of 7.8 µM.
With `COc1cccc(/C=C2\SC(=S)NC2=O)c1O` [Compound 3e] the IC50 (HepG2 cells [1]) was 16.3 µM, the melting point was 199 to 201 °C and the IC50 (MCF-7 cells) was 3.1 µM. For the same compound, the IC50 (A549 cells) was 7.7 µM.
Work on `O=C1NC(=S)S/C1=C\c1ccc2c(c1)OCO2` [Compound 3f, 5-((Z)-3,4-methylenedioxybenzylidene)-2-thioxo-4-thiazolidinone] yielded an IC50 (HepG2 cells [1]) of 8.9 µM, an IC50 (MCF-7 cells) of 12.8 µM and an IC50 (A549 cells) of 21.1 µM.
With `CC(=O)OC[C@H]1O[C@@H](N2C(=O)CSC2=S)[C@H](OC(C)=O)[C@@H](OC(C)=O)[C@@H]1OC(C)=O` [Compound 6, 3-(2',3',4',6'-Tetra-O-acetyl-β-D-glucopyranosyl)-2-thioxo-4-thiazolidinone] the “Fold Change = 2^-ΔΔCT Casp-9” value (Casp-9) was 6.14 fold and 6.14 ± 0.19 fold, the “Fold Change = 2^-ΔΔCT Casp-3” value (Casp-3) was 8.3 fold and 8.3 ± 0.37 fold and the “Fold Change = 2^-ΔΔCT Bcl-2” value (Bcl-2) was 0.36 fold and 0.36 ± 0.01 fold. The “Fold Change = 2^-ΔΔCT Bax” value (Bax) was 5.7 fold and 5.7 ± 0.26 fold, the “Cell population at S-phase” value (HepG2 cells [2]) was 49.6% and the “Fold Change = 2^-ΔΔCT Casp-8” value (Casp-8) was 3.29 fold and 3.29 ± 0.5 fold. For the same compound, the IC50 (HepG2 cells [1]) was 0.21 µM, the IC50 (Topoisomerase II) was 6.9 µM and the “Activation of apoptotic cell death versus untreated control” value (HepG2 cells [3]) was 80.7 fold. For the same compound, the “Early apoptosis (AV+/PI-)” value (HepG2 cells [3]) was 23.07%, the “Late apoptosis (AV+/PI+)” value (HepG2 cells [3]) was 11.66% and the Total apoptosis (HepG2 cells [3]; untreated control 0.43%) was 34.73%. For the same compound, the IC50 (MCF-7 cells) was 11.7 µM, the IC50 (Calfthymus DNA) was 19.6 µM and the IC50 (A549 cells) was 1.7 µM. For the same compound, the “Fold Change = 2^-ΔΔCT P53” value (P53) was 6.16 fold and 6.16 ± 0.69 fold.
Compound `CC(=O)OC[C@H]1O[C@@H](SC2=NC(=O)CS2)[C@H](OC(C)=O)[C@@H](OC(C)=O)[C@@H]1OC(C)=O` [Compound 7] has an IC50 at 48 h [4] of 0.76 µM, an IC50 (Topoisomerase II) of 9.1 µM and an IC50 at 48 h [5] of 12.4 µM. It also gave an IC50 (Calfthymus DNA) of 29.6 µM and an IC50 at 48 h [6] of 0.31 µM.
`O=C1CSC(=S)N1CN1CCOCC1` [Compound 10, 3-morpholinomethyl-2-thioxo-4-thiazolidinone] gave an IC50 (A549 cells) of 36.4 µM.
Compound `CSC1NC(=O)CS1` (stereo not shown) [Compound 11, 2-methylmercapto-4-thiazolidinone] has a melting point of 72 to 74 °C.
In the case of `CC(=O)OCC1OC(SC2=NC(=O)C(=Cc3ccccc3)S2)C(OC(C)=O)C(OC(C)=O)C1OC(C)=O` [Compound 13a, 5-((Z)-benzylidene)-2–(2',3',4',6'-tetra-O-acetyl-β-D-glucopyranosyl)-2-thioxo-4-thiazolidinone], the IC50 (HepG2 cells [1]) is reported as 17.2 µM, the melting point is reported as 166 to 168 °C and the IC50 (Topoisomerase II) is reported as 8.3 µM. For the same compound, the IC50 (MCF-7 cells) was 3.1 µM, the IC50 (Calfthymus DNA) was 22.6 µM and the IC50 (A549 cells) was 6.1 µM.
With `CC(=O)OCC1OC(SC2=NC(=O)C(=Cc3ccc(Cl)cc3Cl)S2)C(OC(C)=O)C(OC(C)=O)C1OC(C)=O` [Compound 13b, 5-((Z)-2,4-dichlorobenzylidene)-2–(2',3',4',6'-tetra-O-acetyl-β-D-glucopyranosyl)-2-thioxo-4-thiazolidinone] the IC50 (HepG2 cells [1]) was 7.2 µM, the melting point was 167 to 169 °C and the IC50 (MCF-7 cells) was 13.1 µM. It also gave an IC50 (A549 cells) of 10.1 µM.
For `CC(=O)OC[C@H]1O[C@@H](SC2=NC(=O)/C(=C/c3ccc4c(c3)OCCO4)S2)[C@H](OC(C)=O)[C@@H](OC(C)=O)[C@@H]1OC(C)=O` [Compound 13c, 5-((Z)-2,4-ethylenedioxybenzylidene)-2–(2',3',4',6'-tetra-O-acetyl-β-D-glucopyranosyl)-2-thioxo-4-thiazolidinone], the IC50 (HepG2 cells [1]) was 21.2 µM and the IC50 (A549 cells) was 4.1 µM.
In the case of `O=C1NC(=O)/C(=C/c2ccc(Cl)cc2Cl)S1` [Compound 14, 5-((Z)-2,4-dichlorobenzylidene)-2,4-thiazolidindione], the IC50 (HepG2 cells [1]) is reported as 37.3 µM, the IC50 (MCF-7 cells) is reported as 42.2 µM and the IC50 (A549 cells) is reported as 31.6 µM.
Work on `COc1cccc2c1C(=O)c1c(O)c3c(c(O)c1C2=O)C[C@@](O)(C(=O)CO)C[C@@H]3O[C@H]1C[C@H](N)[C@H](O)[C@H](C)O1` [Doxorubicin, reference compound] yielded an IC50 (MCF-7 cells) of 7.67 µM, an IC50 (Calfthymus DNA) of 31.3 µM and an IC50 (A549 cells) of 6.62 µM.

Reference: paper PMC9848385, “Design, synthesis, molecular modelling and antitumor evaluation of S-glucosylated rhodanines through topo II inhibition and DNA intercalation” (Journal of Enzyme Inhibition and Medicinal Chemistry, 2023)
